# Values joined by “and” are separate entries in the source; they are usually repeats but may differ in a detail not shown here. Equal entries are not always repeated.
# What was measured:
# canine kidneys [1] = assay: CoPP in the perfusate during EMS perfusion: kidney metabolism and function
# Protocol: (§1) Test group (n=3) canine kidneys were excised, cannulated, flushed of blood with EMS perfusion solution and placed on EMS perfusion at 32° C.-34° C. for 6 hours with either 5, 25 or 50 uM cobalt protoporphyrin (CoPP) added to the perfusate. Metabolic and functional evaluations consisted of quantification of the ex vivo kidney function during the period of HO-1 induction. Using the EMS technology, kidneys were maintained in a metabolically active state by perfusion at near physiologic temperature. Kidneys weighing approximately 70-90 gm were procured following brain death with concomitant warm ischemia of no more than 15 minutes. The kidneys were then transitioned to EMS perfusion at 32° C. to 34° C. The kidneys were evaluated for oxidative metabolism, vascular dynamics and organ function. The organ parameters were allowed to stabilize for one hour prior to the evaluation of function. Samples from the arterial and venous lines were collected, along with the urine produced during the perfusions. PO2 measurements for the arterial and venous samples were made with a Radiometer ABL5.
# Oxygen consumption was calculated as: ml/min/gm=(PO2 artery−PO2 venous)×(flow rate).
# The vascular resistance was calculated as: vasc resis=mean arterial pressure/mean flow rate
# Creatinine was added to the perfusate as a tracer. The urine made during the EMS perfusions at 32° C. to 34° C. was collected and tested. The concentration of creatinine was measured on an IDEXX Vet Lab chemistry analyzer and the glomerular filtration rate (GFR) was calculated as: […]
# canine kidneys [2] = assay: as above; conditions: for F.R. (vascular flow rate) / GFR (glomerular filtration rate) / MAP (mean arterial pressure) / Urinary Protein / Urine Flow / Vasc Res (vascular resistance) / 02 Cons (oxygen consumption): n = 2, mean
# hemeoxygenase-1 (HO-1) = assay: Up-regulation of hemeoxygenase-1 by CoPP during EMS perfusion; set-up: species or system canine; conditions: individual kidneys
# Protocol: EMS perfusion can be used to deliver a drug to an organ, section of anatomy or tissue in a targeted fashion. In addition, during any procedure the EMS supported ongoing metabolism and function can be monitored providing a mechanism to quantify the impact of the drug and any corresponding cellular response to it. For example, a compound known to cause the up-regulation of the heat-shock protein, hemeoxygenase-1 was administered to an isolated kidney being perfused in accordance with the technology of the present invention. The EMS technology provided adequate support of renal metabolism and function during ex vivo perfusion to increase expression of the hemeoxygenase-1 (HO-1) enzyme within six hours.
# as §1, with “Metabolic” for “Test group (n=3) canine kidneys were excised, cannulated, flushed of blood with EMS perfusion solution and placed on EMS perfusion at 32° C.-34° C. for 6 hours with either 5, 25 or 50 uM cobalt protoporphyrin (CoPP) added to the perfusate. Metabolic”
# isolated canine kidneys = assay: Nitric oxide flux in isolated canine kidneys, 48 hour perfusion; conditions: for mean NO3 accumulation in the perfusion solution: following 48 hours, ion chromatograph, mean±standard deviation; for net weight gain (edema): isolated canine kidneys, L-NAME and L-NIL 100 μM added to the perfusion solution
# Protocol: Kidneys were perfused with the perfusion solution and process described above for 48 hours.
# The concentration of nitrate in the solution was determined by analysis on a Dionex DX-500 ion chromatograph using an AS-15 column and KOH eluant that varied in concentration by a programmed gradient. Alternatively, an electrode can be utilized to monitor NO flux in stream. All samples were analyzed in duplicate and were diluted by a factor of 11 and the values expressed as the mean±standard deviation for the kidneys perfused with the solution of the invention or control kidneys perfused with RPMI medium.
# canine kidneys [3] = assay: Regulation of NO flux by titrating L-arginine (nitrite, electrochemical detection)
# Protocol: It is desirable to control the flux of NO in tissues, limbs and organs while they are deprived of physiologic blood flow. In certain clinical situations such as the case of septic shock it may be necessary to inhibit the production of NO. Therefore, the ability to regulate the production of NO was evaluated using the solution and process of the present invention. The production of NO was monitored using electrochemical detection using a carbon-modified anode in stream. Oxidation of NO transfers electrons from NO to the anode generating nitrosonium cation that is converted to nitrite as follows: NO→NO+→HONO→NO2^− Canine kidneys were perfused with the solution of the invention without L-arginine. The substrate L-arginine was added to the perfusion path separately to measure the ability to control NO production.
# Controls consisted of kidneys perfused with L-Name to inhibit NOS function and kidneys perfused with the solution and process of the present invention but without L-arginine.
# kidneys [4] = assay: In situ kidney perfusion during operative procedure, serum creatinine 24 hours posttreatment; format: in vivo; conditions: six hours in situ acellular perfusion, n = 2, L-NAME 100 uM
# Text: The ability to control NOS function during in situ perfusion was observed by placement of cannulas in the aorta above the renal arteries and in the vena cava below the renal veins. In this manner, the renal vasculature could be isolated from vascular blood flow during surgical procedures repairing aortic aneurysm. The kidneys were perfused with the solution of the present invention by opening the perfusion circuit until the blood was flushed from the kidneys. The circuit was then closed and the kidneys perfused acellularly until the end of the surgical procedure and reflow of blood was restored. The cannulas were removed, the incision in the aorta and vena cava closed and blood flow reinstated. During six hours of acellular perfusion the concentration of NO3-was determined every 2 hours and the concentration of L-arginine was adjusted to control the NO flux around the set range using the method described above. Following reperfusion with vascular blood flow, the renal function was evaluated 24 hours posttreatment by determining the serum creatinine (SCR) concentration. Controls consisted of kidneys perfused without L-arginine and kidneys perfused with the addition of L-NAME (100 uM).
# iNOS = conditions: cited from earlier work
# kidneys [5] = assay: Control of NO3 production around a target during 48 hours perfusion
# Protocol: Kidneys were perfused for 48 hours and during the perfusion the kidneys were monitored every 4 hours for the concentration of NO3^− in the circulation. Alternatively, NO concentration can be evaluated by measuring NO directly using an electrode or by measurement of the decrease in concentration of the substrate such as L-arginine. […] The perfusate was exchanged at the rate of 20% v/v every 4 hours with the concentration of L-arginine varying to control the production of NO.
# canine kidneys [6] = assay: Nitrate accumulation and acetylcholine vasodilation after 30 minutes warm ischemia and 18 hours perfusion; conditions: One mg of acetylcholine
# human kidneys = assay: Vasodilation in human kidneys perfused ex vivo, 12 hours
# Protocol: Human kidneys were perfused ex vivo in order to evaluate the continued function of NOS in the formation of a continual flux of NO. • Group 1—Kidneys perfused with the solution and process of the invention, n=2 • Group 2—Kidneys perfused with heparinized blood with the pharmacologic agent, nitroprusside added at doses of 1.0, 10.0 and 100.0 mg, n=2
# The ability to vasodilate and sustain stable perfusion pressures was determined in both groups during 12 hours of ex vivo perfusion.
# canine kidneys [7] = assay: Endothelial-dependent vasodilation by acetylcholine in perfused canine kidneys; conditions: acetylcholine 1.0 mg; kidneys perfused with the solution of the invention
# Protocol: Canine kidneys were tested for the ability to produce NO by induction with acetylcholine at a concentration of 1.0, 10.0 or 100 mg. The acetylcholine was administered to the perfusion path of kidneys using the solution and process of this invention and also in control kidneys that were perfused with RPMI medium alone.
compound,measurement,setting,value
"C=CC1=C(C)c2cc3[n-]c(cc4nc(cc5[n-]c(cc1n2)c(C)c5CCC(=O)[O-])C(CCC(=O)[O-])=C4C)c(C)c3C=C.[Co+2].[H+].[H+] [CoPP, cobalt protoporphyrin]",inhibition of the GFR,canine kidneys [1]; CoPP 50 μM,91%
same,reduction of urine flow,canine kidneys [1]; CoPP increased from 5 to 25 μM,66%
same,reduction of urine flow,canine kidneys [1]; CoPP increased to 50 μM,> 90%
same,F.R. (vascular flow rate),canine kidneys [2]; 5 uM CoPP,114 cc/min
same,GFR (glomerular filtration rate),canine kidneys [2]; 5 uM CoPP,7.02 mL/min
same,MAP (mean arterial pressure),canine kidneys [2]; 5 uM CoPP,47 mmHg
same,Urinary Protein,canine kidneys [2]; 5 uM CoPP,0.16 gm/dL
same,Urine Flow,canine kidneys [2]; 5 uM CoPP,6 cc/hr
same,Vasc Res (vascular resistance),canine kidneys [2]; 5 uM CoPP,0.41
same,02 Cons (oxygen consumption),"canine kidneys [2]; 5 uM CoPP, 6 hours EMS perfusion",0.18 cc/min/gm
same,02 Cons (oxygen consumption),canine kidneys [2]; 25 uM CoPP,0.23 cc/min/gm
same,F.R. (vascular flow rate),canine kidneys [2]; 25 uM CoPP,114 cc/min
same,GFR (glomerular filtration rate),canine kidneys [2]; 25 uM CoPP,2.05 mL/min
same,MAP (mean arterial pressure),canine kidneys [2]; 25 uM CoPP,47 mmHg
same,Urinary Protein,canine kidneys [2]; 25 uM CoPP,3.62 gm/dL
same,Urine Flow,canine kidneys [2]; 25 uM CoPP,2 cc/hr
same,Vasc Res (vascular resistance),canine kidneys [2]; 25 uM CoPP,0.41
same,02 Cons (oxygen consumption),canine kidneys [2]; 50 uM CoPP,0.17 cc/min/gm
same,F.R. (vascular flow rate),canine kidneys [2]; 50 uM CoPP,108 cc/min
same,GFR (glomerular filtration rate),canine kidneys [2]; 50 uM CoPP,0.6 mL/min
same,MAP (mean arterial pressure),canine kidneys [2]; 50 uM CoPP,48 mmHg
same,Urinary Protein,canine kidneys [2]; 50 uM CoPP,3.44 gm/dL
same,Urine Flow,canine kidneys [2]; 50 uM CoPP,0.5 cc/hr
same,Vasc Res (vascular resistance),canine kidneys [2]; 50 uM CoPP,0.44
same,reduction of GFR,canine kidneys [2]; CoPP increased from 5 to 25 μM,71%
same,"Hemeoxygenase-1, CoPP induction during EMS perfusion",hemeoxygenase-1 (HO-1); 5 μM CoPP,9.6 IU and 13.2 IU
same,"Hemeoxygenase-1, CoPP induction during EMS perfusion",hemeoxygenase-1 (HO-1); 10 μM CoPP,16.3 IU and 13.4 IU
same,"Hemeoxygenase-1, CoPP induction during EMS perfusion",hemeoxygenase-1 (HO-1); 25 μM CoPP,16.1 IU and 16.7 IU
same,"Hemeoxygenase-1, CoPP induction during EMS perfusion",hemeoxygenase-1 (HO-1); 50 μM CoPP,15.2 IU and 14.7 IU
"COC(=O)[C@@H](N)CCCNC(=N)N[N+](=O)[O-] [L-NAME, N^6-nitro-L-arginine methyl ester]",mean NO3 accumulation in the perfusion solution,isolated canine kidneys,0.16 ± 0.1 mg/L
same,net weight gain (edema),isolated canine kidneys,350%
same,NO2,"canine kidneys [3]; Control, kidneys perfused with L-Name",0.17 ± 0.3 mg/dL
same,SCr,kidneys [4],4.2 mg/dL
CC(=N)NCCCC[C@H](N)C(=O)O.Cl [L-NIL],mean NO3 accumulation in the perfusion solution,isolated canine kidneys,0.51 ± 0.2 mg/L
same,net weight gain (edema),isolated canine kidneys,206%
same,selectivity for iNOS in comparison to the constitutive endothelial NOS isoform,iNOS,approximately 28 fold
N=C(N)NCCC[C@H](N)C(=O)O [L-arginine],NO3,"kidneys [5]; perfusion time 4 hours, target 200 ug/L/hr+/−10",203 µg/L/h
same,NO3,kidneys [5]; perfusion time 8 hours,180 µg/L/h
same,NO3,kidneys [5]; perfusion time 12 hours,205 µg/L/h
same,NO3,kidneys [5]; perfusion time 16 hours,195 µg/L/h
same,NO3,kidneys [5]; perfusion time 20 hours,201 µg/L/h
same,NO3,kidneys [5]; perfusion time 24 hours,210 µg/L/h
same,NO3,kidneys [5]; perfusion time 28 hours,195 µg/L/h
same,NO3,kidneys [5]; perfusion time 32 hours,202 µg/L/h
same,NO3,kidneys [5]; perfusion time 36 hours,210 µg/L/h
same,NO3,kidneys [5]; perfusion time 40 hours,190 µg/L/h
same,NO3,kidneys [5]; perfusion time 44 hours,203 µg/L/h
same,NO3,kidneys [5]; perfusion time 48 hours,209 µg/L/h
same,NO2,"canine kidneys [3]; L-arginine 18 mg, n = 3",1.2 ± 0.1 mg/dL
same,NO2,"canine kidneys [3]; L-arginine 35 mg, n = 3",3.1 ± 0.1 mg/dL
same,NO2,"canine kidneys [3]; L-arginine 70 mg, n = 3",5.8 ± 0.3 mg/dL
same,NO2,"canine kidneys [3]; L-arginine 140 mg, n = 3",11.2 ± 0.5 mg/dL
CC(=O)OCC[N+](C)(C)C [acetylcholine],time to decrease in mean arterial pressure,canine kidneys [6]; Group 1,≤ 5 min
same,decrease in mean arterial pressure,"canine kidneys [6]; Group 1, perfusion with the solution of the invention",10 mmHg
same,decreased perfusion pressure,"human kidneys; acetylcholine 1.0 mg, Group 1",8 mmHg
same,vascular flow rate after vasodilation,"human kidneys; acetylcholine 1.0 mg, Group 1",> 150 cc/min
same,mean drop in systolic pressures,canine kidneys [7],20 mmHg
same,time to vasodilation after administration,canine kidneys [7],≤ 5 min
C[C@@H]1C[C@H]2[C@@H]3CCC4=CC(=O)C=C[C@]4(C)[C@@]3(F)[C@@H](O)C[C@]2(C)[C@@]1(O)C(=O)CO [dexamethasone],mean NO3 accumulation in the perfusion solution,isolated canine kidneys,0.18 ± 0.1 mg/L
nitroprusside,decrease in the mean arterial pressures,"human kidneys; nitroprusside 1.0 mg, heparinized blood perfusion",did not lead to an appreciable decrease
same,decrease in the mean arterial pressures,"human kidneys; nitroprusside 10.0 mg, heparinized blood perfusion",6 mmHg
same,decrease in the mean arterial pressures,"human kidneys; nitroprusside 100 mg, excessive vascular flow associated with renal damage",profound decrease

# Source: patent US7985536B2, “Method for regulating NO production in an isolated organ or tissue during warm perfusion” (priority 1999, dated 2011)
